The record followed here is US8044069B2, “Compounds as calcium channel blockers” (Abbott Laboratories, priority 2008, dated 2011).

The target in the experiment is human Cav2.2 (Homo sapiens, UniProt Q00975). In words: Assessment of calcium channel activity using FLIPR (Ca2+ influx in IMR32 cells). The format is cell-based. The note with it: IMR32 cells endogenously expressing human Cav2.2; 60 minute pre-incubation; 2 μM nifedipine; depolarized with 80 mM KCl, 5 mM CaCl2. An outline of the steps:
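IMR32 cells were dye-loaded and pre-incubated 60 min with compound (10 μM to 0.1 nM) in 1.3 mM CaCl2 plus 2 μM nifedipine to block L-type channels. Cells were then depolarized with 80 mM KCl while Ca2+ was raised to 5 mM, and FLIPR read the influx. IC50 came from a sigmoidal fit of % inhibition versus the no-inhibitor control.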

Where only a bound is given, the exact number is not on record here.

Sequence of human Cav2.2 (Q00975 whole entry): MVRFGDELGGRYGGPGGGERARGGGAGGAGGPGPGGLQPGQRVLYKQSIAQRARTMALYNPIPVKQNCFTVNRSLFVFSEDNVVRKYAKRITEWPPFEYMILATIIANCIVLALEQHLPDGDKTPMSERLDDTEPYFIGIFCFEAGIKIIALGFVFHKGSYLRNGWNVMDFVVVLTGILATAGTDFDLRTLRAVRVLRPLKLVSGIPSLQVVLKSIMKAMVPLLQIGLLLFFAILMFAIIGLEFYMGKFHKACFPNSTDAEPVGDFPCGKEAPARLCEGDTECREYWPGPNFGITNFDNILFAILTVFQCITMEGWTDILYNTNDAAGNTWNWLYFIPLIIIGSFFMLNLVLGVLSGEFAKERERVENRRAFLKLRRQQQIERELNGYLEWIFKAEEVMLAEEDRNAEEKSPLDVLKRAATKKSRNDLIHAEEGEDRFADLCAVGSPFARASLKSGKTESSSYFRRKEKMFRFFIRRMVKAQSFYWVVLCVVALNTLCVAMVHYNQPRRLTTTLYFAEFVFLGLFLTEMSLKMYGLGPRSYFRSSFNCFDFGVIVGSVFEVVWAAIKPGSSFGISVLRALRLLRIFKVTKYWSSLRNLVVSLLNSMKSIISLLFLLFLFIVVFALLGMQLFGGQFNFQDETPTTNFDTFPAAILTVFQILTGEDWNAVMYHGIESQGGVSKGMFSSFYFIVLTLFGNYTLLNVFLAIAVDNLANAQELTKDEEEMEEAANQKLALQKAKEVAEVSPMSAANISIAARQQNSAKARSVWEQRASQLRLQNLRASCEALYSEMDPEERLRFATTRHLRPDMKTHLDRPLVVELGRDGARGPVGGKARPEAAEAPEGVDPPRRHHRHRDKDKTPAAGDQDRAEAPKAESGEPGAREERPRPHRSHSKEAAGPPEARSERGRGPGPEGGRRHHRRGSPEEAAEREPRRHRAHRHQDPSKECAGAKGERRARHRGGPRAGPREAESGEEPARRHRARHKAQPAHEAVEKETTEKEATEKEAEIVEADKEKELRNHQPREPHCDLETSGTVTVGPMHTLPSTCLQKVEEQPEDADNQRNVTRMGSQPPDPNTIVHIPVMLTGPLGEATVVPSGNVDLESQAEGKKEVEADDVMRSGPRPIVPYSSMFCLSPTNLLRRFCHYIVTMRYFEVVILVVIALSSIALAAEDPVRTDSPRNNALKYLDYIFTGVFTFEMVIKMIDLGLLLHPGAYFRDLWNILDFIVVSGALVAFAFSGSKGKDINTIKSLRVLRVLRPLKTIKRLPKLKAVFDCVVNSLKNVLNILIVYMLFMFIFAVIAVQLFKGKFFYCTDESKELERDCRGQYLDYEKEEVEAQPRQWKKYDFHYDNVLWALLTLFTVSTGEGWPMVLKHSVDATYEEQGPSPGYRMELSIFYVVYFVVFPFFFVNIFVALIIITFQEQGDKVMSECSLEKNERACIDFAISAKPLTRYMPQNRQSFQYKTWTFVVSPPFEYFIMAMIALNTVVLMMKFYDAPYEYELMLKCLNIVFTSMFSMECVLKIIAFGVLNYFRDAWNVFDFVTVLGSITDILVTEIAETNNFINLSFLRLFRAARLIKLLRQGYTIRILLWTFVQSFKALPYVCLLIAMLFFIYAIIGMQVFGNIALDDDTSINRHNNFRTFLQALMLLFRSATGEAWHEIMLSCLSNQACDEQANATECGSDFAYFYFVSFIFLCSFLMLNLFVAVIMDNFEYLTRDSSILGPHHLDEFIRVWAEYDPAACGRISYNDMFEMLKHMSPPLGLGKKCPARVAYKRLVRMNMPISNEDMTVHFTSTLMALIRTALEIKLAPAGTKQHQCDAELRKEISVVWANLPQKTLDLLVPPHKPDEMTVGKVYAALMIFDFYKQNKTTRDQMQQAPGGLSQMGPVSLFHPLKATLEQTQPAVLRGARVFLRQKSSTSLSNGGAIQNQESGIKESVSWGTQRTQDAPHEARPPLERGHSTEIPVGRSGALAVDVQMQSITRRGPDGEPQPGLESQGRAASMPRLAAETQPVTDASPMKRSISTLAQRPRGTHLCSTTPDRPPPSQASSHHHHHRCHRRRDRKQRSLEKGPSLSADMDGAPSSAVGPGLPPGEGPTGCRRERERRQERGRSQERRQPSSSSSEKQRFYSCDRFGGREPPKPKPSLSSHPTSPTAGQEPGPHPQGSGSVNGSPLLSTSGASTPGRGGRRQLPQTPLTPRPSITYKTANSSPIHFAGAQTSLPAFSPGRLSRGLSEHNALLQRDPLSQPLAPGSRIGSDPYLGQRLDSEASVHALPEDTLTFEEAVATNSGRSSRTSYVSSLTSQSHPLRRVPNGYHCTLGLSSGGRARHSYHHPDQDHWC
Sequence of human Cav2.2 (P54289 25-951 partner limits assumed): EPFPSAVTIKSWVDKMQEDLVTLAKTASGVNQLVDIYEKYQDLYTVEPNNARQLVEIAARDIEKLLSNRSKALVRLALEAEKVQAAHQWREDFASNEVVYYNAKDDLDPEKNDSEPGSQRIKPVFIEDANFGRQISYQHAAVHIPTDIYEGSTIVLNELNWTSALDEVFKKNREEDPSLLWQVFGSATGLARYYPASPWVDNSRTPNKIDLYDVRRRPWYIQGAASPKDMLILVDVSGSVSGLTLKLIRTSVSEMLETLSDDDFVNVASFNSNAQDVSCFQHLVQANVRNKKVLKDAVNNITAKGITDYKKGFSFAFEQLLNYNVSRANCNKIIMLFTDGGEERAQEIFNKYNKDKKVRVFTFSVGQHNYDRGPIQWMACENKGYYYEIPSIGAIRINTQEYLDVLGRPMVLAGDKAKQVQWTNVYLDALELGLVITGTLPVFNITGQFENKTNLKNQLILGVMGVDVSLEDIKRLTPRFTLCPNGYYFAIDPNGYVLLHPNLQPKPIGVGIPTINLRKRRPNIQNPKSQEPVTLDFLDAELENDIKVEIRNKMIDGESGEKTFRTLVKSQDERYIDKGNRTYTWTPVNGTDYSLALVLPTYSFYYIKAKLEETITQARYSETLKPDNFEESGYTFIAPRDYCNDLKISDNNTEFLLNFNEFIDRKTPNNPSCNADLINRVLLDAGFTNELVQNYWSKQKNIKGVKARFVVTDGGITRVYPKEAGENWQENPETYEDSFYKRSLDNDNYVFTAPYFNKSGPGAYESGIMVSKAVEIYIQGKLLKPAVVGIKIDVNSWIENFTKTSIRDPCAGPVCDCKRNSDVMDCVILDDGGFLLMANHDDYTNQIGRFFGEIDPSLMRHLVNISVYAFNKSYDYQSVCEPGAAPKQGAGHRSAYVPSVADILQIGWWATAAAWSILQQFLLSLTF
Sequence of human Cav2.2 (P54289 952-1103 partner limits assumed): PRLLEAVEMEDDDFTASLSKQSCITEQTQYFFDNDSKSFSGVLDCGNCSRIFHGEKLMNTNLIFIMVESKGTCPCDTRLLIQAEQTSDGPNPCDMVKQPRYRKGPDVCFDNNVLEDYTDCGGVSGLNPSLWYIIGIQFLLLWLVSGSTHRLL
Sequence of human Cav2.2 (P54284 whole entry partner): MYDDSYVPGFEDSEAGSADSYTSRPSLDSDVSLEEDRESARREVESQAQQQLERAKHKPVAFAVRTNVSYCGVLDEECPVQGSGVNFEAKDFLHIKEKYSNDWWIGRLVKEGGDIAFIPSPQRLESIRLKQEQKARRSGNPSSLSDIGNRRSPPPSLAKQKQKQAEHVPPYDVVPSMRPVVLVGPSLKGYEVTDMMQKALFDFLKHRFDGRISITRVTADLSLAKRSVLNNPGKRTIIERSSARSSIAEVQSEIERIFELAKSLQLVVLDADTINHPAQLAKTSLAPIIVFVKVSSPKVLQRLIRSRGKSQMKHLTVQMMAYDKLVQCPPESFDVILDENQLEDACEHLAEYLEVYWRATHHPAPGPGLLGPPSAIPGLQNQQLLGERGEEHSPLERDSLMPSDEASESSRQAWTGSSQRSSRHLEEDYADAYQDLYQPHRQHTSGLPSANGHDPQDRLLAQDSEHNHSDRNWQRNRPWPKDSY

The IC50 is the concentration that gives 50% inhibition. Turning to `O=C(CN1CCCC(c2ccccc2)(c2ccccc2)C1=O)N1CCN(Cc2ccc(F)c(C(F)(F)F)c2)CC1` [Example 184, 1-(2-{4-[4-fluoro-3-(trifluoromethyl)benzyl]piperazin-1-yl}-2-oxoethyl)-3,3-diphenylpiperidin-2-one], the IC50 came to 1270 nM.
The figure for `O=C(CN1CCCC(c2ccccc2)C1=O)NC1(c2ccc(F)cc2)CCC1` (centres unmarked) [Example 97, N-[1-(4-fluorophenyl)cyclobutyl]-2-(2-oxo-3-phenylpiperidin-1-yl)acetamide] is 10000 nM; for `O=C(CN1CCCC(c2ccccc2)(c2ccccc2)C1=O)N1CCN(C(=O)OCc2ccccc2)CC1` [Example 182, benzyl 4-[(2-oxo-3,3-diphenylpiperidin-1-yl)acetyl]piperazine-1-carboxylate] it is 1370 nM.
The figure for `O=C(CN1CCCC(c2ccc(F)cc2)(c2ccc(F)cc2)C1=O)N1CCN(C(c2ccccc2)c2ccccc2)CC1` [Example 90, 1-[2-(4-benzhydrylpiperazin-1-yl)-2-oxoethyl]-3,3-bis(4-fluorophenyl)piperidin-2-one] is 4610 nM; for `O=C(CN1CCC(c2ccccc2)(c2ccccc2)C1=O)N1CCNC(Cc2ccccc2)C1` (centres unmarked) [Example 18, 1-[2-(3-benzylpiperazin-1-yl)-2-oxoethyl]-3,3-diphenylpyrrolidin-2-one] it is 2650 nM; for `O=C1N(CCN2CCN(c3ncccn3)CC2)CCCC1(c1ccccc1)c1ccccc1` [Example 134, 3,3-diphenyl-1-[2-(4-pyrimidin-2-ylpiperazin-1-yl)ethyl]piperidin-2-one] it is 6480 nM.
The figure for `O=C(CN1CCC(c2ccccc2)(c2ccccc2)C1=O)N1CCN(c2ccc(F)cc2)CC1` [Example 54, 1-{2-[4-(4-fluorophenyl)piperazin-1-yl]-2-oxoethyl}-3,3-diphenylpyrrolidin-2-one] is 2550 nM; for `O=C(CN1CCC(c2ccccc2)(c2ccccc2)C1=O)N1CCN(Cc2ccc(Cl)cc2Cl)CC1` [Example 43, 1-{2-[4-(2,4-dichlorobenzyl)piperazin-1-yl]-2-oxoethyl}-3,3-diphenylpyrrolidin-2-one] it is 520 nM.
As for `O=C(CN1CCC(c2ccc(F)cc2)C1=O)N1CCc2ccc(Cl)cc2C1` (centres unmarked) [Example 256, 1-[2-(7-chloro-3,4-dihydroisoquinolin-2(1H)-yl)-2-oxoethyl]-3-(4-fluorophenyl)pyrrolidin-2-one], the IC50 was 7510 nM.
Regarding `O=C1N(Cc2nc(-c3ccc(F)cc3)no2)CCCC1(c1ccccc1)c1ccccc1` [Example 100, 1-{[3-(4-fluorophenyl)-1,2,4-oxadiazol-5-yl]methyl}-3,3-diphenylpiperidin-2-one], the half-maximal inhibitory concentration (IC50) is 5290 nM.
In the case of `O=C(CN1CCCC(c2ccccc2)(c2ccccc2)C1=O)NC1CCN(C(c2ccccc2)c2ccccc2)CC1` [Example 85, N-(1-benzhydrylpiperidin-4-yl)-2-(2-oxo-3,3-diphenylpiperidin-1-yl)acetamide], the concentration for half-maximal inhibition (IC50) worked out at 410 nM.
Under `O=C(CN1CCC(c2ccc(F)cc2)C1=O)N1Cc2ccc(C(F)(F)F)cc2C1` (centres unmarked) [Example 216, 3-(4-fluorophenyl)-1-{2-oxo-2-[5-(trifluoromethyl)-1,3-dihydro-2H-isoindol-2-yl]ethyl}pyrrolidin-2-one] stands 9430 nM; under `O=C(CN1CCC(c2ccc(F)cc2)(c2ccc(F)cc2)C1=O)Nc1ccc(C(F)(F)F)cc1` [Example 218, 2-[3,3-bis(4-fluorophenyl)-2-oxopyrrolidin-1-yl]-N-[4-(trifluoromethyl)phenyl]acetamide], 6800 nM.
The figure for `O=C1N(S(=O)(=O)c2cccc(C(F)(F)F)c2)CCC1(c1ccccc1)c1ccccc1` [Example 144, 3,3-diphenyl-1-{[3-(trifluoromethyl)phenyl]sulfonyl}pyrrolidin-2-one] is 5480 nM.
The figure for `O=C1[C@@H](c2ccc(F)cc2)CCN1Cc1nc(-c2ccc(C(F)(F)F)cc2)no1` (single isomer, unassigned) [Example 237] is 2810 nM; for `O=C(CN1CCC(c2ccccc2)(c2ccccc2)C1=O)N[C@@H]1CC[C@H]2CN(Cc3cccc(C(F)(F)F)c3)C[C@H]21` (relative stereo) [Example 57, 2-(2-oxo-3,3-diphenylpyrrolidin-1-yl)-N-{(3aS*,4R*,6aR*)-2-[3-(trifluoromethyl)benzyl]octahydrocyclopenta[c]pyrrol-4-yl}acetamide] it is 490 nM.
With `COc1ccc(C2(c3ccc(OC)cc3)CCCN(CCN3CCN(Cc4cc(OC)cc(OC)c4)CC3)C2=O)cc1` [Example 132, 1-{2-[4-(3,5-dimethoxybenzyl)piperazin-1-yl]ethyl}-3,3-bis(4-methoxyphenyl)piperidin-2-one], the half-inhibitory concentration (IC50) stood at 2300 nM.
The figure for `O=C(CCCN1CCC(c2ccccc2)(c2ccccc2)C1=O)N1Cc2ccc(C(F)(F)F)cc2C1` [Example 223, 1-{4-oxo-4-[5-(trifluoromethyl)-1,3-dihydro-2H-isoindol-2-yl]butyl}-3,3-diphenylpyrrolidin-2-one] is 2040 nM; for `O=C(CN1CCC(c2ccccc2)(c2ccccc2)C1=O)Nc1ccc(C(F)(F)F)cn1` [Example 246, 2-(2-oxo-3,3-diphenylpyrrolidin-1-yl)-N-[5-(trifluoromethyl)pyridin-2-yl]acetamide] it is 3770 nM.
The figure for `O=C(CN1CCC(c2ccccc2)(c2ccccc2)C1=O)N1CCOC(c2ccccc2)(c2ccccc2)C1` [Example 23, 1-[2-(2,2-diphenylmorpholin-4-yl)-2-oxoethyl]-3,3-diphenylpyrrolidin-2-one] is 690 nM; for `O=C(CN1CCC(c2ccc(C(F)(F)F)cc2)C1=O)N1Cc2ccc(C(F)(F)F)cc2C1` (centres unmarked) [Example 267, 1-{2-oxo-2-[5-(trifluoromethyl)-1,3-dihydro-2H-isoindol-2-yl]ethyl}-3-[4-(trifluoromethyl)phenyl]pyrrolidin-2-one] it is 7350 nM.
The figure for `CC(C)(C)OC(=O)Nc1ccc(-c2noc(CN3CCC(c4ccccc4)(c4ccccc4)C3=O)n2)cn1` [Example 231, tert-butyl 5-{5-[(2-oxo-3,3-diphenylpyrrolidin-1-yl)methyl]-1,2,4-oxadiazol-3-yl}pyridin-2-ylcarbamate] is above 30000 nM.
On to `O=C(CN1CCCC(c2ccccc2)(c2ccccc2)C1=O)NC1CN(C(c2ccccc2)c2ccccc2)C1` [Example 176, N-(1-benzhydrylazetidin-3-yl)-2-(2-oxo-3,3-diphenylpiperidin-1-yl)acetamide], for which the IC50 was determined as 1030 nM.
Under `O=C(CN1CCC(c2ccccc2)(c2ccccc2)C1=O)N1CCC(=C(c2ccccc2)c2ccccc2)CC1` [Example 31, 1-{2-[4-(diphenylmethylene)piperidin-1-yl]-2-oxoethyl}-3,3-diphenylpyrrolidin-2-one] stands 1910 nM; under `O=C(CN1CCC(c2ccccc2)(c2ccccc2)C1=O)N1CCc2ccccc2C1` [Example 19, 1-[2-(3,4-dihydroisoquinolin-2(1H)-yl)-2-oxoethyl]-3,3-diphenylpyrrolidin-2-one], 3310 nM; under `O=C(CN1CCCC(c2ccccc2)(c2ccccc2)C1=O)N1CCC(Oc2ccc(F)c(F)c2)CC1` [Example 160, 1-{2-[4-(3,4-difluorophenoxy)piperidin-1-yl]-2-oxoethyl}-3,3-diphenylpiperidin-2-one], 3040 nM.
With `CC(c1cccc(C(F)(F)F)c1)N1CCN(C(=O)CN2CCC(c3ccccc3)(c3ccccc3)C2=O)CC1` (centres unmarked) [Example 44, 1-[2-oxo-2-(4-{1-[3-(trifluoromethyl)phenyl]ethyl}piperazin-1-yl)ethyl]-3,3-diphenylpyrrolidin-2-one], the IC50 came out at 770 nM.
Under `O=C(CN1CCC(c2ccccc2)(c2ccccc2)C1=O)N1CCN(Cc2ccc(F)cc2)CC1` [Example 38, 1-{2-[4-(4-fluorobenzyl)piperazin-1-yl]-2-oxoethyl}-3,3-diphenylpyrrolidin-2-one] stands 2220 nM.
The figure for `O=C(CN1CCC(c2ccc(F)cc2)(c2ccc(F)cc2)C1=O)NC1CN(Cc2ccc(C(F)(F)F)c(F)c2)C1` [Example 239, 2-[3,3-bis(4-fluorophenyl)-2-oxopyrrolidin-1-yl]-N-{1-[3-fluoro-4-(trifluoromethyl)benzyl]azetidin-3-yl}acetamide] is 1740 nM; for `O=C1N(Cc2nc(-c3cnccc3C(F)(F)F)no2)CCC1(c1ccccc1)c1ccccc1` [Example 220, 3,3-diphenyl-1-({3-[4-(trifluoromethyl)pyridin-3-yl]-1,2,4-oxadiazol-5-yl}methyl)pyrrolidin-2-one] it is 1990 nM; for `O=C1N(Cc2nc(-c3ccc(C(F)(F)F)nc3)no2)CCCC1(c1ccccc1)c1ccccc1` [Example 177, 3,3-diphenyl-1-({3-[6-(trifluoromethyl)pyridin-3-yl]-1,2,4-oxadiazol-5-yl}methyl)piperidin-2-one] it is 3370 nM.
With `O=C1N(Cc2nc(-c3ccc(Cl)nc3)no2)CCC1(c1ccccc1)c1ccccc1` [Example 214, 1-{[3-(6-chloropyridin-3-yl)-1,2,4-oxadiazol-5-yl]methyl}-3,3-diphenylpyrrolidin-2-one], the IC50 is 2780 nM.
The figure for `O=C1C(c2ccccc2)CCCN1Cc1nc(-c2ccc(C(F)(F)F)cc2)no1` (centres unmarked) [Example 181, 3-phenyl-1-({3-[4-(trifluoromethyl)phenyl]-1,2,4-oxadiazol-5-yl}methyl)piperidin-2-one] is 3270 nM.
Under `O=C(CN1CCC(c2ccccc2)(c2ccccc2)C1=O)N1CCC(c2ccccc2)C1` (centres unmarked) [Example 21, 1-[2-oxo-2-(3-phenylpyrrolidin-1-yl)ethyl]-3,3-diphenylpyrrolidin-2-one] stands 1830 nM.
Regarding `O=C(CN1CCC(c2ccc(F)cc2)(c2ccc(F)cc2)C1=O)N1CCC(C(O)(c2ccc(F)cc2)c2ccc(F)cc2)CC1` [Example 271, 1-(2-{4-[bis(4-fluorophenyl)(hydroxy)methyl]piperidin-1-yl}-2-oxoethyl)-3,3-bis(4-fluorophenyl)pyrrolidin-2-one], the IC50 was determined as 2570 nM.
